Read-outs that look alike come from different tables or passages of the source.
What was measured:
[1] = Cytotoxicity (MTS) in RD cells; format: cell-based, human; details: human, RD (rhabdomyosarcoma) cells
Description: Compounds are tested for cytotoxicity using a MTS (3-(4,5-dimethylthiazol-2-yl)-5-(3-carboxymethoxyphenyl)-2-(4-sulfophenyl)-2H-tetrazolium) method and the CC50 (IC50) values (cytotoxic concentrations of drug required to reduce cell viability by 50%) are determined for each test compound in human rhabdomyosarcoma (RD) cell line. In addition, the maximum non-toxic concentrations (MNTC) are also determined for each compound. To avoid potential drug toxicity that would interfere with viral cytopathic effect (CPE), compounds are evaluated at nontoxic concentrations. The resultant inhibitory effect of each test compound is calculated as a percentage of decrease in EV-71 CPE. Briefly, a monolayer of RD cells is prepared in a 96-well plates. The cells are then infected with 1 MOI of EV-71 (BrCr strain) followed by treatment with a single non-toxic dose of each compound in triplicate. The vehicle control wells are treated with 0.1% DMSO diluted in the working media. […] The dose-response antiviral activity of each compound is determined by a virus yield reduction assay method. Briefly, confluent monolayers of RD cells in 96-wells microplate are infected with 0.1 MOI of EV-71 followed by treatment with compounds. […] Quantitative PCR measurement was performed using StepOnePlus real time PCR system ([…]) according to manufacturer's protocol.

[2] = test system: Enterovirus EV-71 (BrCr strain); assay: Anti-enterovirus activity, EV-71 virus yield reduction (qRT-PCR) in RD cells; format: cell-based; details: for EC50 / EC90: 0.1 MOI, 2 days post-treatment; for EC50: read-out: EC50 against Enterovirus EV-71 (BrCr strain); for EC90: read-out: EC90 against Enterovirus EV-71 (BrCr strain); for IC50: given as IC50, read-out: IC50 against Enterovirus EV-71 (BrCr strain); for IC90: given as IC90, read-out: IC90 against Enterovirus EV-71 (BrCr strain)
Description: Compounds are tested for cytotoxicity using a MTS (3-(4,5-dimethylthiazol-2-yl)-5-(3-carboxymethoxyphenyl)-2-(4-sulfophenyl)-2H-tetrazolium) method and the CC50 (IC50) values (cytotoxic concentrations of drug required to reduce cell viability by 50%) are determined for each test compound in human rhabdomyosarcoma (RD) cell line. In addition, the maximum non-toxic concentrations (MNTC) are also determined for each compound. To avoid potential drug toxicity that would interfere with viral cytopathic effect (CPE), compounds are evaluated at nontoxic concentrations. The resultant inhibitory effect of each test compound is calculated as a percentage of decrease in EV-71 CPE. Briefly, a monolayer of RD cells is prepared in a 96-well plates. The cells are then infected with 1 MOI of EV-71 (BrCr strain) followed by treatment with a single non-toxic dose of each compound in triplicate. The vehicle control wells are treated with 0.1% DMSO diluted in the working media. The plate is then incubated for 48 h at which time the virus-control wells produced detectable CPE. To determine the probable CPE inhibitory effect of test compounds, an MTS assay is performed and effective compounds are chosen for further studies to identify the potency of the compounds and their concentration-dependent manner. The dose-response antiviral activity of each compound is determined by a virus yield reduction assay method. Briefly, confluent monolayers of RD cells in 96-wells microplate are infected with 0.1 MOI of EV-71 followed by treatment with compounds. Effective compounds are further quantified and confirmed with a virus-yield-reduction assay using an optimized in house qRT-PCR to determine the EV-71 RNA copy number after 2 days post-treatment from collected supernatants. qRT-PCR is performed using the EV-71 specific probe/primer mix and qScript-Tough master mix (Quantibio, USA). Quantitative PCR measurement was performed using StepOnePlus real time PCR system ([…]) according to manufacturer's protocol. The median effective concentration (EC50) and the concentration with 90% of inhibitory effect (EC90) are calculated using GraphPad PRISM for Windows, version 5 (GraphPad Software Inc., San Diego, CA, 2005) as the means±standard deviation (SD) of the mean from triplicate assay from three independent experiments.

[3] = test system: SARS-CoV-2; assay: microbe, parasite or virus in culture; format: cell-based; details: for inhibition at 10 µM: Severe acute respiratory syndrome coronavirus 2, Vero, read-out: SARS-CoV-2 Inhibition at 10 μM (%); for EC50 / EC90: Severe acute respiratory syndrome coronavirus 2, Vero cells, unit inferred; for EC50: read-out: Activity against SARS-CoV-2 EC50; for EC90: read-out: Activity against SARS-CoV-2 EC90
[4] = test system: HCoV (OC43); assay: In vitro assay for HCoV (OC43), virus yield reduction in Huh7 cells; format: cell-based; details: Betacoronavirus 1, OC43, Huh-7, 10 μM
Description: In order to determine the potential effect of each selected compound against in vitro replication of SARS-CoV-2 in Vero cells or HCoV (OC43) in Huh7 cells, a confluent cell monolayer in a 96-wells cell culture microplate can be infected at a multiplicity of infection (MOI) of 0.1 and treated with a maximum non-toxic concentration (MNTC) of each compound. To assess the antiviral activity, a virus yield reduction assay using specific qRT-PCR for each virus can be performed.
Dose-Dependent Antiviral Assay. The antiviral effect of each compound selected through the antiviral evaluation assay can be further confirmed by virus yield reduction assay using the optimized qRT-PCR by measuring the RNA copy number for each virus in the supernatant of treated-infected cells. A positive control, such as remdesivir, can be used for each assay.
Statistical analysis. The half-maximal effective concentration (EC50) and the concentration with 90% of inhibitory effect (EC90) can be calculated using GraphPad PRISM for Windows, version 5 (GraphPad Software Inc., San Diego, CA, 2005) or the Chou and Talalay Method.
These methods were used to evaluate certain of the compounds described herein.

| SMILES | CC50 [1] [nM] | EC50 ([2]; RD, 48 h) [nM] | EC90 ([2]; RD, 48 h) [nM] | also measured |
| --- | --- | --- | --- | --- |
| CC(C)C[C@H](NC(=O)[C@H](Cc1cccc2ccccc12)NC(=O)OCc1ccccc1)C(=O)N[C@@H](C[C@@H]1CCCNC1=O)C(=O)C(F)(F)F [drawing 122] | 65000 | 320 | 580 | – |
| COC(=O)C1O[C@@H]1[C@H](C[C@@H]1CCNC1=O)NC(=O)[C@H](CC(C)C)NC(=O)[C@H](Cc1cccc2ccccc12)NC(=O)OCc1ccccc1 (stereo partly drawn) | 80200 | 190 | 360 | – |
| CC(C)C[C@H](NC(=O)[C@H](Cc1ccc(F)cc1)NC(=O)OCc1ccccc1)C(=O)N[C@H](C=O)C[C@@H]1CCCNC1=O [drawing 135] | > 100000 | – | – | IC50 [2]: 10.3 nM; IC90 [2]: 29.1 nM |
| Cc1cc(C(=O)N[C@@H](Cc2cccc3ccccc23)C(=O)N[C@@H](CC(C)C)C(=O)NC(C=O)C[C@@H]2CCCNC2=O)no1 (single isomer, unassigned) | > 100000 | – | – | EC50 [2]: 1.7 nM; EC90 [2]: 7.5 nM |
| CCOC(=O)/C=C/[C@H](C[C@@H]1CCCNC1=O)NC(=O)C(CC(C)C)NC(=O)[C@H](Cc1cccc2ccccc12)NC(=O)c1cc(C)on1 (stereo partly drawn) [Compound 44] | – | – | – | inhibition at 10 µM [3]: 99.5%; inhibition at 10 µM [4]: 99.7% |
| CC(C)C[C@H](NC(=O)[C@H](Cc1cccc2ccccc12)NC(=O)OCc1ccccc1)C(=O)N[C@H](C=O)C[C@@H]1CCNC1=O | > 100000 | 90 | 260 | – |
| CC(C)C[C@H](NC(=O)OCc1ccccc1)C(=O)NC(C=O)C[C@@H]1CCCNC1=O (stereo partly drawn) | > 100000 | 50 | 130 | – |
| CC(C)C[C@H](NC(=O)[C@H](Cc1cccc2ccccc12)NC(=O)OCc1ccccc1)C(=O)N[C@@H](C[C@@H]1CCCNC1=O)C(O)C(F)(F)F (stereo partly drawn) [drawing 125] | 25000 | 310 | 580 | – |
| CC(C)C[C@H](NC(=O)[C@H](Cc1cccc2ccccc12)NC(=O)OCc1ccccc1)C(=O)N[C@@H](CC1CCNC1=O)[C@H]1O[C@@H]1S(C)(=O)=O (stereo partly drawn) | > 100000 | 1440 | 5020 | – |
| CC(C)C[C@H](NC(=O)[C@H](Cc1cccc2ccccc12)NC(=O)c1cnccn1)C(=O)N[C@H](C=O)C[C@@H]1CCCNC1=O | > 100000 | 15.8 | 47.5 | – |
| CC(C)C[C@H](NC(=O)[C@H](Cc1ccc(F)cc1)NC(=O)c1cnccn1)C(=O)N[C@H](C=O)C[C@@H]1CCCNC1=O | > 100000 | 280 | 570 | – |
| CC(C)C[C@H](NC(=O)[C@H](Cc1cccc2ccccc12)NC(=O)OCc1ccccc1)C(=O)N[C@@H](C[C@@H]1CCCNC1=O)C(O)S(=O)(=O)O (stereo partly drawn) [drawing 134] | 95000 | – | – | IC50 [2]: 11.8 nM; IC90 [2]: 30 nM |
| Cc1cc(C(=O)N[C@@H](CC(C)C)C(=O)N[C@H](C=O)C[C@@H]2CCCNC2=O)no1 | > 100000 | 1100 | 4000 | – |
| CC(C)C[C@H](NC(=O)[C@H](Cc1cccc2ccccc12)NC(=O)OCc1ccccc1)C(=O)N[C@@H](C[C@@H]1CCCNC1=O)[C@@H](O)C#N [Compound 128, Benzyl ((S)-1-(((S)-1-(((1R,2S)-1-cyano-1-hydroxy-3-((S)-2-oxopiperidin-3-yl)propan-2-yl)amino)-4-methyl-1-oxopentan-2-yl)amino)-3-(naphthalen-1-yl)-1-oxopropan-2-yl)carbamate] | – | – | – | inhibition at 10 µM [3]: 99.9%; inhibition at 10 µM [4]: 100% |
| CC(C)C[C@H](NC(=O)[C@@H](Cc1cccc2ccccc12)NC(=O)OCc1ccccc1)C(=O)N[C@H](C=O)C[C@@H]1CCCNC1=O | 32500 | – | – | IC50 [2]: 8.8 nM; IC90 [2]: 30 nM |
| CC(C)C[C@H](NC(=O)[C@H](Cc1ccc(F)cc1)NC(=O)c1cnccn1)C(=O)N[C@H](C=O)C[C@@H]1CCNC1=O | > 100000 | – | – | IC50 [2]: 90 nM; IC90 [2]: 570 nM |
| CC(C)C[C@H](NC(=O)[C@H](Cc1cccc2ccccc12)NC(=O)OCc1ccccc1)C(=O)N[C@@H](C[C@@H]1CCCNC1=O)C(O)S(=O)(=O)O (stereo partly drawn) [Compound 37, Sodium (5S,8S, 11S)-12-hydroxy-8-isobutyl-5-(naphthalen-1-ylmethyl)-3,6,9-trioxo-11-(((S)-2-oxopiperidin-3-yl)methyl)-1-phenyl-2-oxa-4,7,10-triazadodecane-12-sulfonate] | – | – | – | inhibition at 10 µM [3]: 99.9%; EC50 [3]: 300 nM; EC90 [3]: 4500 nM; inhibition at 10 µM [4]: 99.9% |
| Cc1cc(C(=O)NC(CC(C)C)C(=O)N[C@H](C=O)C[C@@H]2CCCNC2=O)no1 (stereo partly drawn) [Compound 43] | – | – | – | inhibition at 10 µM [3]: 99.9%; inhibition at 10 µM [4]: 99.9% |
| CC(C)C[C@H](NC(=O)[C@H](Cc1cccc2ccccc12)NC(=O)OCCc1ccccc1)C(=O)N[C@H](C=O)C[C@@H]1CCNC1=O | 42500 | 750 | 2110 | – |
| CC(C)C[C@H](NC(=O)[C@H](Cc1ccc(F)cc1)NC(=O)OCc1ccccc1)C(=O)N[C@H](C=O)C[C@@H]1CCNC1=O | > 100000 | 30 | 60 | – |
| CC(C)C[C@H](NC(=O)[C@H](Cc1ccc(O)cc1)NC(=O)OCc1ccccc1)C(=O)N[C@H](C=O)CC1CCNC1=O (stereo partly drawn) | – | 2300 | 4800 | CC50 ([1]; unit inferred): > 100000 nM |
| CC(C)C[C@H](NC(=O)[C@H](Cc1cccc2ccccc12)NC(=O)c1cnccn1)C(=O)N[C@H](C=O)C[C@@H]1CCNC1=O | > 100000 | – | – | IC50 [2]: 17.2 nM; IC90 [2]: 64 nM |
| Cc1cc(C(=O)N[C@@H](Cc2cccc3ccccc23)C(=O)N[C@@H](CC(C)C)C(=O)N[C@H](C=O)C[C@@H]2CCCNC2=O)no1 [Compound 91, 5-Methyl-N—((S)-1-(((S)-4-methyl-1-oxo-1-(((S)-1-oxo-3-((S)-2-oxopiperidin-3-yl)propan-2-yl)amino)pentan-2-yl)amino)-3-(naphthalen-1-yl)-1-oxopropan-2-yl)isoxazole-3-carboxamide] | – | – | – | EC50 [3]: 600 nM; EC90 [3]: 2300 nM |
| Cc1cc(C(=O)N[C@@H](Cc2ccc(F)cc2)C(=O)N[C@@H](CC(C)C)C(=O)N[C@H](C=O)C[C@@H]2CCCNC2=O)no1 | > 100000 | 9.4 | 16.6 | – |
| CC(C)C[C@H](NC(=O)[C@H](Cc1ccc(O)cc1)NC(=O)OCc1ccccc1)C(=O)N[C@H](C=O)C[C@@H]1CCCNC1=O | > 100000 | 190 | 360 | – |
